18 compounds from ChEMBL document CHEMBL5233253, “β-Lactams as promising anticancer agents: Molecular hybrids, structure activity relationships and potential targets” (Eur J Med Chem, 2020) can be followed below.

Broadly, the IC50 is the concentration needed to halve the response being measured. Usually EC50 stands for the concentration that produces a half-maximal response.

Structures are written as SMILES. Bounds are passed on as bounds.

Assay [1] addresses Heat shock protein HSP90 (Homo sapiens, UniProt P07900+P08238). Description: Inhibition of HSP90 (unknown origin). It is filed as protein assay.
For assay [2], the target named is Tubulin. Description: Inhibition of tubulin (unknown origin) polymerization incubated for 5 mins by spectrophotometer analysis. It is filed as protein-complex assay, Homo sapiens.
Assay [3] relates to MCF7. In words: Cytotoxicity against human MCF7 cells assessed as inhibition of cell growth by MTT assay. It is filed as functional, cell-based. In general terms: Tetrazolium dyes change colour on reduction, which living cells bring about.
In assay [4] the test system is A549. Description: Cytotoxicity against human A549 cells assessed as inhibition of cell growth by MTT assay. It is filed as functional, cell-based.
The subject of assay [5] is HEK293. In words: Antiproliferative activity against human HEK293 cells assessed as inhibition of cell growth measured after 48 hrs by MTT assay. The assay is classed as functional, cell-based. As to conditions: HEK293, 48 h.
The nature of assay [6]: Inhibition of Klebsiella pneumoniae beta Metallo-beta-lactamase IMP-28.
The subject of assay [7] is L1210. Description: Cytotoxicity against mouse L1210 cells assessed as reduction in cell viability. The assay is classed as functional, cell-based.
Assay [8] concerns CCRF-CEM. In words: Cytotoxicity against human CEM cells assessed reduction in cell viability. The assay is classed as functional, cell-based.
Assay [9] concerns HT-1080. In words: Cytotoxicity against human HT-1080 cells assessed reduction in cell viability. It is filed as functional, cell-based.
A short description of assay [10]: Anti-keratosis activity in vitamin-A-deficient hamster trachea in presence of beta-lactamase. It is filed as functional, tissue-based, Cricetulus griseus.

In [1], `CCc1cc([C@@H]2CC(=O)N2c2ccc3c(c2)OCCO3)c(O)cc1O` gave an IC50 of 5.6 µM. On to `COc1cc(N2C(=O)[C@H](c3cccs3)[C@H]2c2cccc(N=[N+]=[N-])c2)cc(OC)c1OC`, for which, in [2], the IC50 was found to be 2.26 µM.

As for `CC(O)C1C(=O)NC1OC(=O)/C=C/c1ccc(N)cc1` (centres undefined), the IC50 in assay [3] and in assay [4] was 1.59 µM in each case. Regarding `C[C@H](CCC(=O)OCc1cn([C@@H]2C(=O)N(CCN3C(=O)[C@@H](n4cc(COC(=O)CC[C@@H](C)[C@H]5CC[C@H]6[C@@H]7[C@H](O)C[C@@H]8C[C@H](O)CC[C@]8(C)[C@H]7C[C@H](O)[C@]56C)nn4)[C@H]3c3ccccc3)[C@@H]2c2ccccc2)nn1)[C@H]1CC[C@H]2[C@@H]3CC[C@@H]4C[C@H](O)CC[C@]4(C)[C@H]3C[C@H](O)[C@]12C`, in assay [5], the IC50 was 10 µM.

With `O=C(OCc1ccccc1)[C@H]1[C@@H](Cc2ccc(O)cc2)C(=O)N1C(=O)c1ccccc1`, in assay [6], the IC50 amounted to 0.34 µM. Consider `Cc1cn(CCCN2C(=O)C(OCc3ccccc3)C2c2ccc(Br)cc2)c(=O)n(CCCN2C(=O)C(OCc3ccccc3)C2c2ccc(Br)cc2)c1=O` (centres undefined), for which the figures for the IC50 in assay [7] and in [8] were 4.1 µM and 3.4 µM, respectively. In the case of `CC(O)C1C(=O)NC1OC(=O)/C=C/c1ccc(Cl)cc1` (centres undefined), the IC50 in [3] and in assay [4] was 1.59 µM throughout. The compound `O=C(O)c1ccc(COC(=O)[C@H]2[C@@H](Cc3ccccc3)C(=O)N2C(=O)Cc2cccc(C(=O)OCc3ccccc3)c2)cc1` yielded an IC50 in assay [6] of 0.34 µM.

Turning to `O=C(OCc1ccccc1)c1cccc(CC(=O)N2C(=O)[C@H](Cc3ccccc3)[C@@H]2C(=O)OCc2ccccc2)c1`, the IC50 in assay [6] amounted to 0.34 µM.

In the case of `COc1ccc(/C=C/C(=O)OC2NC(=O)C2C(C)O)cc1` (centres undefined), the IC50 in assay [3] and in assay [4] was 1.59 µM throughout. Consider `C[C@H](CCC(=O)NCc1cn([C@@H]2C(=O)N(CCN3C(=O)[C@@H](n4cc(CNC(=O)CC[C@@H](C)[C@H]5CC[C@H]6[C@@H]7CC[C@@H]8C[C@H](O)CC[C@]8(C)[C@H]7C[C@H](O)[C@]56C)nn4)[C@H]3c3ccccc3)[C@@H]2c2ccccc2)nn1)[C@H]1CC[C@H]2[C@@H]3CC[C@@H]4C[C@H](O)CC[C@]4(C)[C@H]3C[C@H](O)[C@]12C`, for which the IC50 in assay [5] was determined as 500 µM.

`C=C(C)[C@H](C(=O)OC(c1ccccc1)c1ccccc1)N1C(=O)/C(=C/C(=O)OC(C)(C)C)[C@H]1SSc1nc2ccccc2s1` registered an IC50 in assay [9] of 0.4 µM. Compound `O=C(OCc1ccccc1)c1cccc(CC(=O)N2C(=O)[C@H](Cc3ccc(O)cc3)[C@@H]2C(=O)OCc2ccccc2)c1` had an IC50 in [6] of 0.34 µM. For `CC(O)C1C(=O)NC1OC(=O)/C=C/c1ccccc1` (centres undefined), the IC50 in assay [3] and in assay [4] was 1.59 µM each time. For the compound `CC(O)C1C(=O)NC1OC(=O)/C=C/c1ccc(Br)cc1` (centres undefined), the half-inhibitory concentration (IC50) in [3] and in [4] was 1.59 µM each time. As to `CC1=C(/C=C/C(C)=C/C=C/C(C)=C/C(=O)OCC2=C(C(=O)O)N3C(=O)[C@@H](NC(=O)COc4ccccc4)[C@H]3[S+]([O-])C2)C(C)(C)CCC1` (some centres undefined), in assay [10], the half-maximal effective concentration (EC50) worked out at 0.0391 nM. Regarding `C[C@H](CCC(=O)NCc1cn([C@@H]2C(=O)N(CCN3C(=O)[C@@H](n4cc(CNC(=O)CC[C@@H](C)[C@H]5CC[C@H]6[C@@H]7[C@H](O)C[C@@H]8C[C@H](O)CC[C@]8(C)[C@H]7C[C@H](O)[C@]56C)nn4)[C@H]3c3ccccc3)[C@@H]2c2ccccc2)nn1)[C@H]1CC[C@H]2[C@@H]3CC[C@@H]4C[C@H](O)CC[C@]4(C)[C@H]3C[C@H](O)[C@]12C`, in [5], the IC50 stood at 100 µM.

With `C[C@H](CCC(=O)OCc1cn([C@@H]2C(=O)N(CCN3C(=O)[C@@H](n4cc(COC(=O)CC[C@@H](C)[C@H]5CC[C@H]6[C@@H]7CC[C@@H]8C[C@H](O)CC[C@]8(C)[C@H]7C[C@H](O)[C@]56C)nn4)[C@H]3c3ccccc3)[C@@H]2c2ccccc2)nn1)[C@H]1CC[C@H]2[C@@H]3CC[C@@H]4C[C@H](O)CC[C@]4(C)[C@H]3C[C@H](O)[C@]12C`, in [5], the IC50 is over 1000 µM.
